These are literature values, as cited in patent publication US5162307A, “Polymer bound elastase inhibitors” (Board of Trustees of the University of Kentucky, priority 1992, dated 1992).

The conditions of data set [1]: in vivo.
For a further data set, the system named is rabbits. As to conditions: rabbit, in vivo.
Another data set deals with guinea pigs. As to conditions: guinea pig, in vivo.

In the case of “poly α, β-[N-(2-hydroxyethyl)-D,L-aspartamide] [PHEA]”, in data set [1], the “effect on the biosynthetic mechanism of the serum proteins or of blood cells” value is “no adverse effect” and the toxicity result is reported as “lack toxicity”. Further, in data set [1] (iv), the organ weight entry is “do not induce any significant changes” and the total weight gain entry is “do not induce any significant changes”. For the same substance, the “immune response (antigenicity)” value in the data set on rabbits was “no evidence of an immune response”. The “immune response (antigenicity)” value in the data set with guinea pigs is recorded as “no evidence of an immune response”.
